Source: patent publication US12514832B2, “Methods for using low-dose colchicine after myocardial infarction” (INSTITUT DE CARDIOLOGIE DE MONTREAL, priority 2019, dated 2026)

Tested on: patients recruited within 30 days after a myocardial infarction
Experiment: COLCOT randomized, double-blind, placebo-controlled trial: clinical efficacy end points
Type: in vivo, human
Set-up: Primary efficacy composite endpoint, % of patients with event: concentration or dose not given beside the values
Procedure: We performed a randomized, double-blind trial involving patients recruited within 30 days after a myocardial infarction. The patients were randomly assigned to receive either low-dose colchicine (0.5 mg once daily) or placebo. A total of 4745 patients were enrolled; 2366 patients were assigned to the colchicine group, and 2379 to the placebo group. Patients were followed for a median of 22.6 months.
The primary efficacy end point was a composite of death from cardiovascular causes, resuscitated cardiac arrest, myocardial infarction, stroke, or urgent hospitalization for angina leading to coronary revascularization. The components of the primary end point and safety were also assessed.
In this randomized, double-blind, placebo-controlled, investigator-initiated trial, we assigned patients in a 1:1 ratio to receive either colchicine (at a dose of 0.5 mg once daily) or placebo. The trial protocol, available at NEJM.org, was designed by a trial steering committee. The protocol was approved by the institutional review board at each of the 167 centers in the 12 countries that participated in the trial (available at NEJM.org). All trial support activities, including project coordination, data management, site monitoring, and statistical oversight and analyses, were performed at the Montreal Health Innovations Coordinating Center. Potential trial end-point events were adjudicated by an independent clinical end-point committee composed of experienced cardiologists and neurologists who were unaware of the trial-group assignments. The trial was overseen by a data and safety monitoring board of independent experts. The trial medication and matching placebo were provided by Pharmascience.
Patients were excluded if they had severe heart failure, a left ventricular ejection fraction of less than 35%, stroke within the previous 3 months, a type 2 index myocardial infarction, coronary-bypass surgery either within the previous 3 years or planned, a history of noncutaneous cancer within the previous 3 years, inflammatory bowel disease or chronic diarrhea, neuromuscular disease or a nontransient creatine kinase level that was greater than three times the upper limit of the normal range (unless due to infarction), clinically significant nontransient hematologic abnormalities, severe renal disease with a serum creatinine level that was greater than two times the upper limit of the normal range; severe hepatic disease, drug or alcohol abuse, current or planned long-term systemic glucocorticoid therapy, or a history of clinically significant sensitivity to colchicine. (Details regarding eligibility criteria are provided herein.)
The primary efficacy end point was a composite of death from cardiovascular causes, resuscitated cardiac arrest, myocardial infarction, stroke, or urgent hospitalization for angina leading to coronary revascularization in a time-to-event analysis.
The secondary end points consisted of the components of the primary efficacy end point; a composite of death from cardiovascular causes, resuscitated cardiac arrest, myocardial infarction, or stroke; and total mortality in time-to-event analyses. Coronary revascularization, hospitalization for heart failure, atrial fibrillation, and deep venous thrombosis or pulmonary embolus were prespecified as exploratory end points in the protocol.
The efficacy analyses were conducted with the use of positively adjudicated data and according to the intention-to-treat principle. The primary end point was compared between the two trial groups with the use of a log-rank test, and the hazard ratio from a Cox proportional-hazards model, with a 95% confidence interval, was calculated. A Cox proportional-hazards model with adjustment for important baseline characteristics was also used as prespecified in the protocol.
The analysis of the primary end point was repeated in the per-protocol population (i.e., patients without major protocol deviations). […]

[1] = per-protocol population, N=2260

In the case of `COc1cc2c(c(OC)c1OC)-c1ccc(OC)c(=O)cc1[C@@H](NC(C)=O)CC2` [Colchicine, colchicine], the “Primary efficacy composite endpoint, Hazard ratio” value (colchicine vs placebo, subgroup Female) is reported as 0.99, the “Primary efficacy composite endpoint, Hazard ratio” value (colchicine vs placebo, subgroup History of diabetes No) is reported as 0.85 and the “Primary efficacy composite endpoint, Hazard ratio” value (colchicine vs placebo, subgroup History of diabetes Yes) is reported as 0.65. The “Primary efficacy composite endpoint, Hazard ratio” value (colchicine vs placebo, subgroup History of hypertension No) was 0.80, the “Primary efficacy composite endpoint, Hazard ratio” value (colchicine vs placebo, subgroup History of hypertension Yes) was 0.76 and the “Primary efficacy composite endpoint, Hazard ratio” value (colchicine vs placebo, subgroup Male) was 0.70. The “Primary efficacy composite endpoint, Hazard ratio” value (colchicine vs placebo, subgroup Non-smoker) was 0.90, the “Primary efficacy composite endpoint, Hazard ratio” value (colchicine vs placebo, subgroup Previous smoker) was 0.59 and the “Primary efficacy composite endpoint, Hazard ratio” value (colchicine vs placebo, subgroup Prior MI No) was 0.68. The “Primary efficacy composite endpoint, Hazard ratio” value (colchicine vs placebo, subgroup Prior MI Yes) was 1.05, the “Primary efficacy composite endpoint, Hazard ratio” value (colchicine vs placebo, subgroup Prior PCI or CABG No) was 0.72 and the “Primary efficacy composite endpoint, Hazard ratio” value (colchicine vs placebo, subgroup Prior PCI or CABG Yes) was 0.91. For the same compound, the “Primary efficacy composite endpoint, Hazard ratio” value (colchicine vs placebo, subgroup Prior stroke or TIA No) was 0.76, the “Primary efficacy composite endpoint, Hazard ratio” value (colchicine vs placebo, subgroup Prior stroke or TIA Yes) was 1.09 and the “Primary efficacy composite endpoint, Hazard ratio” value (colchicine vs placebo, subgroup White blood cell count Above median) was 0.80. The “Primary efficacy composite endpoint, Hazard ratio” value (colchicine vs placebo, subgroup White blood cell count Below median) was 0.85, the “Primary endpoint, hazard ratio” value (colchicine vs placebo, women, per-protocol population) was 0.81 (0.47; 1.41) and the “MI, %” value [1] was 3.4%. The “MI, no. of patients” value [1] was 77, the “Primary endpoint, % of patients” value [1] was 5.1% and the “Primary endpoint, no. of patients” value [1] was 115. For the same compound, the “Resuscitated cardiac arrest, %” value [1] was 0.2%, the “Resuscitated cardiac arrest, no. of patients” value [1] was 5 and the “Stroke, %” value [1] was 0.2%. For the same compound, the “Stroke, no. of patients” value [1] was 5, the “Urgent hospitalization for angina requiring revascularization, %” value [1] was 1.0% and the “Urgent hospitalization for angina requiring revascularization, no. of patients” value [1] was 22. For the same compound, the “Primary efficacy composite endpoint, % of patients with event” value (“Primary efficacy composite endpoint, %” below) (subgroup Active smoker) was 5.4%, the “Primary efficacy composite endpoint, no. of patients with event” value (subgroup Active smoker, total 708) was 38 and the “Primary efficacy composite endpoint, %” value (subgroup Female) was 7.8%. For the same compound, the “Primary efficacy composite endpoint, no. of patients with event” value (subgroup Female, total 472) was 37, the “Primary efficacy composite endpoint, %” value (subgroup History of diabetes No) was 4.8% and the “Primary efficacy composite endpoint, no. of patients with event” value (subgroup History of diabetes No, total 1904) was 91. The “Primary efficacy composite endpoint, %” value (subgroup History of diabetes Yes) was 8.7%, the “Primary efficacy composite endpoint, no. of patients with event” value (subgroup History of diabetes Yes, total 462) was 40 and the “Primary efficacy composite endpoint, %” value (subgroup History of hypertension No) was 4.1%. For the same compound, the “Primary efficacy composite endpoint, no. of patients with event” value (subgroup History of hypertension No, total 1181) was 48, the “Primary efficacy composite endpoint, %” value (subgroup History of hypertension Yes) was 7.0% and the “Primary efficacy composite endpoint, no. of patients with event” value (subgroup History of hypertension Yes, total 1185) was 83. The “Primary efficacy composite endpoint, %” value (subgroup Male) was 5.0%, the “Primary efficacy composite endpoint, no. of patients with event” value (subgroup Male, total 1894) was 94 and the “Primary efficacy composite endpoint, %” value (subgroup Non-smoker) was 6.0%. For the same compound, the “Primary efficacy composite endpoint, no. of patients with event” value (subgroup Non-smoker, total 787) was 47, the “Primary efficacy composite endpoint, %” value (subgroup Previous smoker) was 5.3% and the “Primary efficacy composite endpoint, no. of patients with event” value (subgroup Previous smoker, total 871) was 46. The “Primary efficacy composite endpoint, %” value (subgroup Prior MI No) was 4.3%, the “Primary efficacy composite endpoint, no. of patients with event” value (subgroup Prior MI No, total 1996) was 85 and the “Primary efficacy composite endpoint, %” value (subgroup Prior MI Yes) was 12.4%. For the same compound, the “Primary efficacy composite endpoint, no. of patients with event” value (subgroup Prior MI Yes, total 370) was 46, the “Primary efficacy composite endpoint, %” value (subgroup Prior PCI or CABG No) was 4.3% and the “Primary efficacy composite endpoint, no. of patients with event” value (subgroup Prior PCI or CABG No, total 1947) was 83. The “Primary efficacy composite endpoint, %” value (subgroup Prior PCI or CABG Yes) was 11.5%, the “Primary efficacy composite endpoint, no. of patients with event” value (subgroup Prior PCI or CABG Yes, total 419) was 48 and the “Primary efficacy composite endpoint, %” value (subgroup Prior stroke or TIA No) was 5.3%. The “Primary efficacy composite endpoint, no. of patients with event” value (subgroup Prior stroke or TIA No, total 2311) was 123, the “Primary efficacy composite endpoint, %” value (subgroup Prior stroke or TIA Yes) was 14.5% and the “Primary efficacy composite endpoint, no. of patients with event” value (subgroup Prior stroke or TIA Yes, total 55) was 8. For the same compound, the “Primary efficacy composite endpoint, %” value (subgroup White blood cell count Above median) was 5.3%, the “Primary efficacy composite endpoint, no. of patients with event” value (subgroup White blood cell count Above median, total 637) was 34 and the “Primary efficacy composite endpoint, %” value (subgroup White blood cell count Below median) was 6.2%. The “Primary efficacy composite endpoint, no. of patients with event” value (subgroup White blood cell count Below median (8.64 × 10^3/μL), total 660) was 41.
